We go through two compounds from US8946201B2, “Methods for inhibiting TGF-β” (Saint Louis University, priority 2007, dated 2015).

Series [1] has as its system luciferase reporter gene driven by the PAI-1 promoter. Kind of series: Luciferase activity assay, MLECs-clone 32. The class given is cell-based, mink. How it is done:
(A, B, C, D, E, F) Cells were treated with 50 μg/ml cholesterol (A, B, C, D) and 50 μg/ml LDL (D) at 37° C. for 1 hr or with 1 μM fluvastatin or lovastatin (E) or several concentrations of fluvastatin (F) at 37° C. for 16 hr and then further incubated with increasing concentrations (as indicated) of TGF-β1 (A, B, C, E) or 50 pM TGF-β1 (D,F) for 2 hr. Northern blot analysis of PAI-1 and G3PDH was performed. A representative of a total of three analyses is shown (a). The relative intensities of the transcripts were quantified with a PhosphoImager. The ratio of the relative intensities of PAI-1 and G3PDH transcripts in cells treated without TGF-β1 and cholesterol, LDL or statins on the blot was taken as 1 fold or 100% of PAI-1 expression. The quantitative data from three independent analyses is shown (b). […] (G) Mv1Lu cells stably expressing a luciferase reporter gene driven by the PAI-1 promoter (MLECs-clone 32) were treated with increasing concentrations (as indicated) of cholesterol at 37 EC for 1 hr (a) or with 1 μM lovastatin at 37° C. for 16 hr (b) and then further incubated with 50 pM TGF-β for 7 hr. The luciferase activity in cells treated without cholesterol was taken as 100% (a). […] (H) Cells were incubated with 0.0625 and 0.125 pM TGF-β1 in the presence of increasing concentrations of cholesterol, as indicated. […] The experiments were carried out in triplicate.

For series [2], the system named is Mv1Lu cells. Kind of series: Cell viability under the experimental conditions, Mv1Lu cells. The class given is cell-based, mink. Particulars: conditions of the thymidine incorporation or affinity labeling experiment. The procedure: The growth of cholesterol-treated cells was determined by measurement of [methyl-^3H]thymidine incorporation into cellular DNA as described (30). Briefly, cells grown near confluence on 48-well clustered dishes were treated with several concentrations of cholesterol at 37° C. for 1 hr in serum-free DMEM. The final concentration of ethanol (the vehicle for cholesterol) in the medium was 0.2%. Treated cells were then incubated with 0.0625 pM or 0.125 pM of TGF-β1 in DMEM containing 0.1% fetal calf serum at 37° C. for 18 hr. The [methyl-^3H]thymidine incorporation into cellular DNA was then determined by incubation of cells with [methyl-^3H]thymidine at 37° C. for 2 hr in DMEM containing 0.1% fetal calf serum. The optimal concentrations of TGF-β1 to inhibit cell growth are in the range of 0.1 to 1 pM.
To define the specificity of the cholesterol effect, we determined the effects of cholesterol analogs and derivatives on ^125I-TGF-β1 binding to TβR-I and TβR-II in Mv1Lu cells. These cells were treated with 50 μg/ml of cholesterol or related oxysterol derivatives (25-hydroxycholesterol, 7-dehydrocholesterol (7-DHC), oxidized 7-DHC (oxy-7-DHC), cholest-5-en-7-one, 7-ketocholesterol, 7β,8β-epoxycholestanol, and 7β-hydroxycholesterol) at 37° C. for 1 hr. ^125I-TGF-β1 binding to TGF-β receptors was then determined by affinity labeling.

On to `CC[C@H](C)C(=O)O[C@H]1C[C@@H](C)C=C2C=C[C@H](C)[C@H](CC[C@@H]3C[C@@H](O)CC(=O)O3)[C@H]21` [lovastatin, reference compound], for which, in series [1] (1 μM, 16 hr, 50 pM TGF-β1), the “enhancement of TGF-β1-stimulated luciferase activity” value is given as 1.7 fold.
`CC(C)CCC[C@@H](C)[C@H]1CC[C@H]2[C@@H]3CC=C4C[C@@H](O)CC[C@]4(C)[C@H]3CC[C@]12C` [cholesterol]: in series [1] (25 ug/ml, without lovastatin), the “effect of cholesterol alone on TGF-β-stimulated luciferase activity” value is on record as “did not alter”. In series [1] (50 μg/ml, 50 pM TGF-β1), the “suppression of TGF-β1-stimulated luciferase activity” value was determined as 40%. This compound also came in with a luciferase activity in series [1] (cells treated with cholesterol (25 ug/ml), lovastatin and TGF-β1) of 2314±120 A.U. Moreover, the “effect on the stimulatory effect of lovastatin on TGF-β-stimulated luciferase activity” value in series [1] (cholesterol 25 ug/ml for 1 hr prior to TGF-β stimulation) was “abolished”. For the same compound, the “effect on cell viability” value in series [2] is on record as “did not appear to affect”.
